# Reference: ChEMBL document CHEMBL3045984, “Resistance to HPPD-inhibiting herbicides in a population of waterhemp (Amaranthus tuberculatus) from Illinois, United States” (2011)
# What was measured:
# Format in all cases: functional
# Amaranthus tuberculatus [1] = assay: Herbicidal activity against Amaranthus tuberculatus biotype ACR assessed as visual injury at 560 g/ha applied as spray after 7 days under green house conditions relative to untreated control
# Amaranthus tuberculatus [2] = assay: Herbicidal activity against Amaranthus tuberculatus biotype MCR 15 assessed as visual injury at 560 g/ha applied as spray after 21 days under green house conditions relative to untreated control
# Amaranthus tuberculatus [3] = assay: Herbicidal activity against Amaranthus tuberculatus biotype WCS assessed as visual injury at 560 g/ha applied as spray after 14 days under green house conditions relative to untreated control
# Amaranthus tuberculatus [4] = assay: Herbicidal activity against Amaranthus tuberculatus biotype MCR 12 assessed as visual injury at 560 g/ha applied as spray after 7 days under green house conditions relative to untreated control
# Amaranthus tuberculatus [5] = assay: Herbicidal activity against Amaranthus tuberculatus biotype ACR assessed as visual injury at 560 g/ha applied as spray after 14 days under green house conditions relative to untreated control
# Amaranthus tuberculatus [6] = assay: Herbicidal activity against Amaranthus tuberculatus biotype MCR 16 assessed as visual injury at 560 g/ha applied as spray after 7 days under green house conditions relative to untreated control
# Amaranthus tuberculatus [7] = assay: Herbicidal activity against Amaranthus tuberculatus biotype MCR 15 assessed as visual injury at 560 g/ha applied as spray after 14 days under green house conditions relative to untreated control
# Amaranthus tuberculatus [8] = assay: Herbicidal activity against Amaranthus tuberculatus biotype ACR assessed as visual injury at 560 g/ha applied as spray after 21 days under green house conditions relative to untreated control
# Amaranthus tuberculatus [9] = assay: Herbicidal activity against Amaranthus tuberculatus biotype MCR 12 assessed as visual injury at 560 g/ha applied as spray after 14 days under green house conditions relative to untreated control
# Amaranthus tuberculatus [10] = assay: Herbicidal activity against Amaranthus tuberculatus biotype MCR 12 assessed as visual injury at 560 g/ha applied as spray after 21 days under green house conditions relative to untreated control
# Amaranthus tuberculatus [11] = assay: Herbicidal activity against Amaranthus tuberculatus biotype MCR 15 assessed as visual injury at 560 g/ha applied as spray after 7 days under green house conditions relative to untreated control
# Amaranthus tuberculatus [12] = assay: Herbicidal activity against Amaranthus tuberculatus biotype MCR 16 assessed as visual injury at 560 g/ha applied as spray after 21 days under green house conditions relative to untreated control
# Amaranthus tuberculatus [13] = assay: Herbicidal activity against Amaranthus tuberculatus biotype MCR 16 assessed as visual injury at 560 g/ha applied as spray after 14 days under green house conditions relative to untreated control
# Amaranthus tuberculatus [14] = assay: Herbicidal activity against Amaranthus tuberculatus biotype WCS assessed as visual injury at 560 g/ha applied as spray after 21 days under green house conditions relative to untreated control
# Amaranthus tuberculatus [15] = assay: Herbicidal activity against Amaranthus tuberculatus biotype WCS assessed as visual injury at 560 g/ha applied as spray after 7 days under green house conditions relative to untreated control
# Amaranthus tuberculatus [16] = assay: Herbicidal activity against Amaranthus tuberculatus biotype WCS assessed as visual injury at 315 g/ha applied as spray after 21 days under green house conditions relative to untreated control
# Amaranthus tuberculatus [17] = assay: Herbicidal activity against Amaranthus tuberculatus biotype MCR 16 assessed as visual injury at 105 g/ha applied as spray after 14 days under green house conditions relative to untreated control
# Amaranthus tuberculatus [18] = assay: Herbicidal activity against Amaranthus tuberculatus biotype MCR assessed as mortality at 315 g/ha applied as spray after 21 days under green house conditions relative to untreated control; details: 504 h
# Amaranthus tuberculatus [19] = assay: Herbicidal activity against Amaranthus tuberculatus biotype MCR 12 assessed as visual injury at 105 g/ha applied as spray after 14 days under green house conditions relative to untreated control
# Amaranthus tuberculatus [20] = assay: Herbicidal activity against Amaranthus tuberculatus biotype MCR 15 assessed as visual injury at 105 g/ha applied as spray after 21 days under green house conditions relative to untreated control
# Amaranthus tuberculatus [21] = assay: Herbicidal activity against Amaranthus tuberculatus biotype MCR 16 assessed as visual injury at 105 g/ha applied as spray after 21 days under green house conditions relative to untreated control
# Amaranthus tuberculatus [22] = assay: Herbicidal activity against Amaranthus tuberculatus biotype MCR 12 assessed as visual injury at 105 g/ha applied as spray after 21 days under green house conditions relative to untreated control
# Amaranthus tuberculatus [23] = assay: Herbicidal activity against Amaranthus tuberculatus biotype MCR 15 assessed as visual injury at 105 g/ha applied as spray after 14 days under green house conditions relative to untreated control
# Amaranthus tuberculatus [24] = assay: Herbicidal activity against Amaranthus tuberculatus biotype ACR assessed as visual injury at 315 g/ha applied as spray after 21 days under green house conditions relative to untreated control
# Amaranthus tuberculatus [25] = assay: Herbicidal activity against Amaranthus tuberculatus biotype MCR 16 assessed as visual injury at 105 g/ha applied as spray after 7 days under green house conditions relative to untreated control
# Amaranthus tuberculatus [26] = assay: Herbicidal activity against Amaranthus tuberculatus biotype ACR assessed as visual injury at 105 g/ha applied as spray after 7 days under green house conditions relative to untreated control
# Amaranthus tuberculatus [27] = assay: Herbicidal activity against Amaranthus tuberculatus biotype WCS assessed as decrease in shoot dry weight applied as spray after 21 days under green house conditions
# Amaranthus tuberculatus [28] = assay: Herbicidal activity against Amaranthus tuberculatus biotype MCR 15 assessed as visual injury at 105 g/ha applied as spray after 7 days under green house conditions relative to untreated control
# Amaranthus tuberculatus [29] = assay: Herbicidal activity against Amaranthus tuberculatus biotype MCR assessed as mortality at 105 g/ha applied as spray after 21 days under green house conditions relative to untreated control; details: 504 h
# Amaranthus tuberculatus [30] = assay: Herbicidal activity against Amaranthus tuberculatus biotype ACR assessed as visual injury at 105 g/ha applied as spray after 14 days under green house conditions relative to untreated control
# Amaranthus tuberculatus [31] = assay: Herbicidal activity against Amaranthus tuberculatus biotype WCS assessed as decrease in shoot dry weight at 105 g/ha applied as spray during post-emergence after 21 days under green house conditions relative to untreated control; parameters: scale not given: the % may be the effect or the level left
# Amaranthus tuberculatus [32] = assay: Herbicidal activity against Amaranthus tuberculatus biotype MCR assessed as decrease in shoot dry weight applied as spray after 21 days under green house conditions
# Amaranthus tuberculatus [33] = assay: Herbicidal activity against Amaranthus tuberculatus biotype ACR assessed as decrease in shoot dry weight applied as spray after 21 days under green house conditions
# Amaranthus tuberculatus [34] = assay: Herbicidal activity against Amaranthus tuberculatus biotype ACR assessed as visual injury at 105 g/ha applied as spray after 21 days under green house conditions relative to untreated control
# Amaranthus tuberculatus [35] = assay: Herbicidal activity against Amaranthus tuberculatus biotype MCR 12 assessed as visual injury at 105 g/ha applied as spray after 7 days under green house conditions relative to untreated control
# Amaranthus tuberculatus [36] = assay: Herbicidal activity against Amaranthus tuberculatus biotype WCS assessed as visual injury at 105 g/ha applied as spray after 21 days under green house conditions relative to untreated control
# Amaranthus tuberculatus [37] = assay: Herbicidal activity against Amaranthus tuberculatus biotype WCS assessed as visual injury at 105 g/ha after 7 days applied as spray under green house conditions relative to untreated control
# Amaranthus tuberculatus [38] = assay: Herbicidal activity against Amaranthus tuberculatus biotype MCR assessed as decrease in shoot dry weight at 105 g/ha applied as spray during post-emergence after 21 days under green house conditions relative to untreated control; parameters: scale not given: the % may be the effect or the level left
# Amaranthus tuberculatus [39] = assay: Herbicidal activity against Amaranthus tuberculatus biotype ACR assessed as decrease in shoot dry weight at 105 g/ha applied as spray during post-emergence after 21 days under green house conditions relative to untreated control; parameters: scale not given: the % may be the effect or the level left
# Amaranthus tuberculatus [40] = assay: Herbicidal activity against Amaranthus tuberculatus biotype WCS assessed as visual injury at 105 g/ha applied as spray after 14 days under green house conditions relative to untreated control
smiles,measurement,setting,value
CCNc1nc(Cl)nc(NC(C)C)n1 [ATRAZINE],Activity,Amaranthus tuberculatus [1],14%
same,Activity,Amaranthus tuberculatus [2],1%
same,Activity,Amaranthus tuberculatus [3],87%
same,Activity,Amaranthus tuberculatus [4],7%
same,Activity,Amaranthus tuberculatus [5],8%
same,Activity,Amaranthus tuberculatus [6],5%
same,Activity,Amaranthus tuberculatus [7],2%
same,Activity,Amaranthus tuberculatus [8],4%
same,Activity,Amaranthus tuberculatus [9],4%
same,Activity,Amaranthus tuberculatus [10],4%
same,Activity,Amaranthus tuberculatus [11],5%
same,Activity,Amaranthus tuberculatus [12],1%
same,Activity,Amaranthus tuberculatus [13],1%
same,Activity,Amaranthus tuberculatus [14],81%
same,Activity,Amaranthus tuberculatus [15],83%
CS(=O)(=O)c1ccc(C(=O)C2C(=O)CCCC2=O)c([N+](=O)[O-])c1 [MESOTRIONE],Activity,Amaranthus tuberculatus [16],100%
same,Activity,Amaranthus tuberculatus [17],45%
same,mortality at 315 g/ha,Amaranthus tuberculatus [18],33%
same,Activity,Amaranthus tuberculatus [19],24%
same,Activity,Amaranthus tuberculatus [20],26%
same,Activity,Amaranthus tuberculatus [21],27%
same,Activity,Amaranthus tuberculatus [22],13%
same,Activity,Amaranthus tuberculatus [23],36%
same,Activity,Amaranthus tuberculatus [24],100%
same,Activity,Amaranthus tuberculatus [25],48%
same,Activity,Amaranthus tuberculatus [26],63%
same,GR50,Amaranthus tuberculatus [27],1.4 g/ha
same,Activity,Amaranthus tuberculatus [28],37%
same,mortality at 105 g/ha,Amaranthus tuberculatus [29],0%
same,Activity,Amaranthus tuberculatus [30],90%
same,Activity,Amaranthus tuberculatus [31],>90%
same,GR50,Amaranthus tuberculatus [32],48.5 g/ha
same,GR50,Amaranthus tuberculatus [33],4.9 g/ha
same,Activity,Amaranthus tuberculatus [34],88%
same,Activity,Amaranthus tuberculatus [35],40%
same,Activity,Amaranthus tuberculatus [36],100%
same,Activity,Amaranthus tuberculatus [37],85%
same,Activity,Amaranthus tuberculatus [38],60%
same,Activity,Amaranthus tuberculatus [39],>90%
same,Activity,Amaranthus tuberculatus [40],96%
